Source: patent US20070003987A1, “Screening method for substance binding to merozoite surface protein-1/42” (priority 2003, published 2007)

Legend:
[1] = target: T1, MSP119 from P. falciparum (Plasmodium falciparum, UniProt P04933, S1528A); assay: NMR titration of 15N labelled MSP119 with suramin; type: binding
T1 construct: contained the 96 amino acid MSP119 fragment, preceded by a single His residue; N-terminal leader […]; (His6 + Factor Xa site); made in house; host or cells: Pichia pastoris (vector pPIC9K)
T1 sequence (P04933 1526-1618 S1528A): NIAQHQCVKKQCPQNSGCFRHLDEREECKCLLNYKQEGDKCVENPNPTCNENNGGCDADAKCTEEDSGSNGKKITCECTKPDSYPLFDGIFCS
Description: Plasmodium falciparum MSP119 (Swiss-Prot 04933) was expressed from a synthetic gene optimised for Pichia pastoris expression (European Patent No. EP1180120). This construct, inserted at the SnaBI site of vector pPIC9K (Invitrogen), contained the N-terminal leader sequence YHHHHHHIEGRH preceding the MSP119 sequence. A point mutation (Ser3 to Ala) was also introduced to eliminate N-glycosylation at Asn1. Following purification of MSP119 as described previously (Morgan et al, 1999 J. Mol. Biol. 289, 113-122), the N-terminal tag was cleaved with Factor Xa (New England Biolabs) and MSP119 was purified by gel filtration (Superdex 200). The fmal product contained the 96 amino acid MSP119 fragment, preceded by a single His residue.
NMR experiments were carried out on Varian spectrometers operating at proton frequencies of 500, 600 and 800 MHz. Suramin (0.03-16.0 mM) ^1H spectra were recorded at 5 to 35° C. […] MSP119/suramin samples were examined with either unlablled or ^15N labelled MSP119 in 50 mM sodium phosphate and 100 mM NaCl in 90% H2O/10% D2O at pH 6.5 (pH values are pH meter readings uncorrected for deuterium isotope effects). […] 1D ^1H and 2D ^1H-^15N HSQC NMR spectra were recorded for each concentration of suramin. […]

P. vivax MSP142 = assay: binding of suramin by fluorimetry
Description: The MSP142 protein from P. vivax was cloned into plasmid jmp28, a modified pET-28 vector that encodes an N-terminal peptide MHHHHHHIEGRWIL immediately upstream of the inserted sequence. P. vivax (Belem strain) DNA was used as a template for PCR based cloning. The sequence of the expressed protein (following the vector encoded N-terminal peptide) corresponded to residues Asp 1325 to Ser 1704, Accession number A39401.
The protein was expressed in BL21(DE3)pLysS cells by induction of a culture at an OD600 of 0.6-0.8 with IPTG at a final concentration of 1 mM. The cells were induced for 3 h at 37° C. and then harvested by centrifugation. […]
The intrinsic fluorescence of suramin was used to determine its capacity to bind to the various MSP1-derived proteins. The fluorescence was measured using a Perkin Elmer LS-3B or a Spex Fluoro Max 2 fluorimeter. Suramin was excited at a wavelength of 315 or 330 nm with 2.5 nm resolution, the emission spectra were measured at wavelengths ranging from 350-450 nm. Suramin and the MSP1 proteins were diluted in 20 mM NaH2PO4, 150 mM NaCl at pH 7.2 and analysed at 10 or 20° C. […] The Kd for the suramin-MSP1 binding was determined from three independent experiments.

MSP142 = MSP142 (Plasmodium falciparum, UniProt Q8I0U8); assay: titration of fluorescent analogues against MSP142; type: binding
Sequence of MSP142 (Q8I0U8 1327-1699): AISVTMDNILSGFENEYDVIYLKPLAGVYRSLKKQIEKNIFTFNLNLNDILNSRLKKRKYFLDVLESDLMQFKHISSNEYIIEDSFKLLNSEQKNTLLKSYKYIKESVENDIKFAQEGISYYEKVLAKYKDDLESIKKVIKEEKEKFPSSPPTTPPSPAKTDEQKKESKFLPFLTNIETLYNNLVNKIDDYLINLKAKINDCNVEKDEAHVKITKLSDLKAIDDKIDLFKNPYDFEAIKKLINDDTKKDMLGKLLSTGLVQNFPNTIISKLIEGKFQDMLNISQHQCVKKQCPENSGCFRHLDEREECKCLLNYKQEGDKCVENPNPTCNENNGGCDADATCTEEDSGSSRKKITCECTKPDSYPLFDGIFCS
Procedure: Analogues 258, 261, 264 and 266 were titrated against (a) PBS buffer only, (b) 0.1 mg/ml bovine serum albumin in PBS or (c) 0.1 mg/ml MSP142 in PBS. Fluorescence observed was compared to naphthalenetrisulphate (non-specific reagent) and suramin.

## Cc1ccc(C(=O)Nc2ccc(S(=O)(=O)O)c3cc(S(=O)(=O)O)cc(S(=O)(=O)O)c23)cc1NC(=O)c1cccc(NC(=O)Nc2cccc(C(=O)Nc3cc(C(=O)Nc4ccc(S(=O)(=O)O)c5cc(S(=O)(=O)O)cc(S(=O)(=O)O)c45)ccc3C)c2)c1 [suramin]
[1]
  Kd: ~15 mM
P. vivax MSP142
  enhancement of intrinsic suramin fluorescence on binding: large binding-induced enhancements
MSP142
  EC50: ~0.002 mM
MSP142; 0.1 mg/ml MSP142 in PBS, 0.01-200 μM
  fluorescence in the presence of MSP142: became fluorescent in the presence of MSP142 specifically
